Measurements: patent US20260315492A1, “5,6-FUSED BICYCLIC AMIDES AND COMPOSITIONS FOR USE AS 15-PROSTAGLANDIN DEHYDROGENASE MODULATORS” (AMGEN INC., priority 2023, published 2026)

The compounds below were run against T1, human recombinant 15-PGDH (Homo sapiens, UniProt P15428) (assay: Inhibition of recombinant 15-PGDH enzymatic activity (NADH quantification after addition of PGE2 and NAD+)). Details: recombinant 15-PGDH; 15 min pre-incubation, 60-minute reaction, room temperature, pH 7.5; PGE2 and NAD+; read-out: PGDH-Lumi IC50.
T1 sequence (P15428 1-266): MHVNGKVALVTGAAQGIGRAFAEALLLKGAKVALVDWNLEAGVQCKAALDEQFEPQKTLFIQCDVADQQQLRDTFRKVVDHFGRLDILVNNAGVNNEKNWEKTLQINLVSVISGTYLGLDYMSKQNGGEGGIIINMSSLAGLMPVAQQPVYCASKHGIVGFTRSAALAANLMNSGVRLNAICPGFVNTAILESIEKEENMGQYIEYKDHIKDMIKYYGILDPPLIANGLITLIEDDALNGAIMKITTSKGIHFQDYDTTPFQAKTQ
Type: biochemical
Procedure: The compound dose-response of its inhibition of 15-PGDH activity was determined in human recombinant 15-PGDH enzymatical assays. These assays measured 15-PGDH enzymatic activity by quantifying the amount of NADH produced during a 60-minute reaction initiated by the addition of PGE2 and NAD+. Under the conditions of these experiments, the increase of NADH signal upon oxidation of PGE2 and reduction of NAD+ was linearly proportional to 15-PGDH enzymatic activity. The recombinant human, mouse, rat and dog 15-PGDH enzymatic assays were performed in a 25 μL volume of reaction buffer containing 50 mM Tris, pH 7.5, 0.01% Tween-20 and 100 μM DTT in a 384-well microtiter plate. In concentration-response experiments with tested compounds, 22 concentrations from 2-fold serial dilutions in DMSO were pre-incubated with 15-PGDH for 15 minutes at room temperature. Then, PGE2 and ß-NAD+ were added to initiate the 15-PGDH reaction. After 60 minutes at room temperature, the reaction was quenched and NADH signal was measured using a microtiter plate reader.
The following data (Table 11-1) provides the IC50 of each compound for inhibiting enzymatic activity of recombinant 15-PGDH in the assay described above.

SMILES	IC50 [nM]
O=C(c1cc2ccc(-c3ccc(=O)[nH]c3)nc2s1)N1CCOCC1 [Compound B41, 5-(2-(4-morpholinylcarbonyl)thieno[2,3-b]pyridin-6-yl)-2(1H)-pyridinone]	641
Cn1nc2cc(-c3ccc4cc(C(=O)N5CCOCC5)sc4n3)cnc2n1 [Compound B42, (6-(2-methyl-2H-[1,2,3]triazolo[4,5-b]pyridin-6-yl)thieno[2,3-b]pyridin-2-yl)(4-morpholinyl)methanone]	6.33
C[C@@H]1COCCN1C(=O)c1cc2ccc(-c3cnc4nn(C)nc4c3)nc2s1 [Compound B43R, ((3R)-3-methyl-4-morpholinyl)(6-(2-methyl-2H-[1,2,3]triazolo[4,5-b]pyridin-6-yl)thieno[2,3-b]pyridin-2-yl)methanone]	40.3
C[C@H]1COCCN1C(=O)c1cc2ccc(-c3cnc4nn(C)nc4c3)nc2s1 [Compound B43S, ((3S)-3-methyl-4-morpholinyl)(6-(2-methyl-2H-[1,2,3]triazolo[4,5-b]pyridin-6-yl)thieno[2,3-b]pyridin-2-yl)methanone]	23.4
C[C@@H]1COCCN1C(=O)c1cc2ccc(-c3cnc4c(c3)nnn4C)nc2s1 [Compound B44R, ((3R)-3-methyl-4-morpholinyl)(6-(3-methyl-3H-[1,2,3]triazolo[4,5-b]pyridin-6-yl)thieno[2,3-b]pyridin-2-yl)methanone]	56.7
C[C@H]1COCCN1C(=O)c1cc2ccc(-c3cnc4c(c3)nnn4C)nc2s1 [Compound B44S, ((3S)-3-methyl-4-morpholinyl)(6-(3-methyl-3H-[1,2,3]triazolo[4,5-b]pyridin-6-yl)thieno[2,3-b]pyridin-2-yl)methanone]	54.2
Cn1cc2cc(-c3ccc4cc(C(=O)N5CCOCC56CC6)sc4n3)cnc2n1 [Compound B45, (6-(2-methyl-2H-pyrazolo[3,4-b]pyridin-5-yl)thieno[2,3-b]pyridin-2-yl)(7-oxa-4-azaspiro[2.5]octan-4-yl)methanone]	46.1
Cn1cc2cc(-c3ccc4cc(C(=O)N5CCOC(C(F)(F)F)C5)sc4n3)cnc2n1 (stereo not drawn) [Compound B46, (6-(2-methyl-2H-pyrazolo[3,4-b]pyridin-5-yl)thieno[2,3-b]pyridin-2-yl)(2-(trifluoromethyl)-4-morpholinyl)methanone]	2.6
Cn1cc2cc(-c3ccc4cc(C(=O)N5CCOC6(CC6)C5)sc4n3)cnc2n1 [Compound B47, (6-(2-methyl-2H-pyrazolo[3,4-b]pyridin-5-yl)thieno[2,3-b]pyridin-2-yl)(4-oxa-7-azaspiro[2.5]octan-7-yl)methanone]	0.712
C[C@@H]1COCCN1C(=O)c1cc2ccc(-c3ccc(=O)[nH]c3)nc2s1 [Compound B48R, 5-(2-(((3R)-3-methyl-4-morpholinyl)carbonyl)thieno[2,3-b]pyridin-6-yl)-2(1H)-pyridinone]	1030
C[C@H]1COCCN1C(=O)c1cc2ccc(-c3ccc(=O)[nH]c3)nc2s1 [Compound B48S, 5-(2-(((3S)-3-methyl-4-morpholinyl)carbonyl)thieno[2,3-b]pyridin-6-yl)-2(1H)-pyridinone]	986
O=C(c1cc2ccc(-c3ccc4ncccc4c3)nc2s1)N1CCOCC1 [Compound B49, 4-morpholinyl(6-(6-quinolinyl)thieno[2,3-b]pyridin-2-yl)methanone]	77.8
Cn1cnc2ncc(-c3ccc4cc(C(=O)N5CCOCC5)sc4n3)cc21 [Compound B50, (6-(1-methyl-1H-imidazo[4,5-b]pyridin-6-yl)thieno[2,3-b]pyridin-2-yl)(4-morpholinyl)methanone]	2.64
Cn1cc2cc(-c3ccc4cc(C(=O)N5CCOCC56COC6)sc4n3)cnc2n1 [Compound B51, 2,8-dioxa-5-azaspiro[3.5]nonan-5-yl(6-(2-methyl-2H-pyrazolo[3,4-b]pyridin-5-yl)thieno[2,3-b]pyridin-2-yl)methanone]	340
Cn1cc2cc(-c3ccc4cc(C(=O)N5CCOC6CC65)sc4n3)cnc2n1 (stereo not drawn) [Compound B53, (6-(2-methyl-2H-pyrazolo[3,4-b]pyridin-5-yl)thieno[2,3-b]pyridin-2-yl)(2-oxa-5-azabicyclo[4.1.0]heptan-5-yl)methanone]	1.81
Cn1nnc2cc(-c3ccc4cc(C(=O)N5CCOCC5)sc4n3)cnc21 [Compound B54, (6-(3-methyl-3H-[1,2,3]triazolo[4,5-b]pyridin-6-yl)thieno[2,3-b]pyridin-2-yl)(4-morpholinyl)methanone]	16.1
C[C@H]1COCCN1C(=O)c1cc2ccc(-c3ccc4ncccc4c3)nc2s1 [Compound B55S, ((3S)-3-methyl-4-morpholinyl)(6-(6-quinolinyl)thieno[2,3-b]pyridin-2-yl)methanone]	144
O=C(c1cc2ccc(-c3cnc4nccnc4c3)nc2s1)N1CCOCC1 [Compound B56, 4-morpholinyl(6-(pyrido[2,3-b]pyrazin-7-yl)thieno[2,3-b]pyridin-2-yl)methanone]	5.91
C[C@H]1COCCN1C(=O)c1cc2ccc(-c3cnc4nccnc4c3)nc2s1 [Compound B57S, ((3S)-3-methyl-4-morpholinyl)(6-(pyrido[2,3-b]pyrazin-7-yl)thieno[2,3-b]pyridin-2-yl)methanone]	10.3
Cn1ccc2cc(-c3ccc4cc(C(=O)N5CCOCC5)sc4n3)cnc2c1=O [Compound B58, 7-methyl-3-(2-(4-morpholinylcarbonyl)thieno[2,3-b]pyridin-6-yl)-1,7-naphthyridin-8(7H)-one]	8.15
Cn1cc2cc(-c3ccc4cc(C(=O)N5CCOCC56CCC6)sc4n3)cnc2n1 [Compound B59, (6-(2-methyl-2H-pyrazolo[3,4-b]pyridin-5-yl)thieno[2,3-b]pyridin-2-yl)(8-oxa-5-azaspiro[3.5]nonan-5-yl)methanone]	46.4
C[C@@H]1COCCN1C(=O)c1cc2ccc(-c3cnc4nccnc4c3)nc2s1 [Compound B60R, ((3R)-3-methyl-4-morpholinyl)(6-(pyrido[2,3-b]pyrazin-7-yl)thieno[2,3-b]pyridin-2-yl)methanone]	10.6
C[C@@H]1COCCN1C(=O)c1cc2ccc(-c3ccc4ncccc4c3)nc2s1 [Compound B61R, ((3R)-3-methyl-4-morpholinyl)(6-(6-quinolinyl)thieno[2,3-b]pyridin-2-yl)methanone]	189
C[C@@H]1COCCN1C(=O)c1cc2ccc(-c3cnc4c(=O)n(C)ccc4c3)nc2s1 [Compound B62R, 7-methyl-3-(2-(((3R)-3-methyl-4-morpholinyl)carbonyl)thieno[2,3-b]pyridin-6-yl)-1,7-naphthyridin-8(7H)-one]	4260
C[C@H]1COCCN1C(=O)c1cc2ccc(-c3cnc4c(=O)n(C)ccc4c3)nc2s1 [Compound B62S, 7-methyl-3-(2-(((3S)-3-methyl-4-morpholinyl)carbonyl)thieno[2,3-b]pyridin-6-yl)-1,7-naphthyridin-8(7H)-one]	39.2
C[C@@H]1COCCN1C(=O)c1cc2ccc(-c3cnc4ncn(C)c4c3)nc2s1 [Compound B63R, (6-(1-methyl-1H-imidazo[4,5-b]pyridin-6-yl)thieno[2,3-b]pyridin-2-yl)((3R)-3-methyl-4-morpholinyl)methanone]	5.17
C[C@H]1COCCN1C(=O)c1cc2ccc(-c3cnc4ncn(C)c4c3)nc2s1 [Compound B63S, (6-(1-methyl-1H-imidazo[4,5-b]pyridin-6-yl)thieno[2,3-b]pyridin-2-yl)((3S)-3-methyl-4-morpholinyl)methanone]	5.68
